Experiments:
[1] = biological target: Protein arginine N-methyltransferase 1 (Homo sapiens, UniProt Q99873); test: Selectivity interaction (Scintillation proximity assay) EUB0000261b PRMT1
[2] = biological target: Protein arginine N-methyltransferase 3 (Homo sapiens, UniProt O60678); test: Selectivity interaction (Scintillation proximity assay) EUB0000261b PRMT3
[3] = biological target: T1, Histone-arginine methyltransferase CARM1 (Homo sapiens, UniProt Q86X55); test: Selectivity interaction (Scintillation proximity assay) EUB0000261b CARM1
T1 sequence (Q86X55 whole entry): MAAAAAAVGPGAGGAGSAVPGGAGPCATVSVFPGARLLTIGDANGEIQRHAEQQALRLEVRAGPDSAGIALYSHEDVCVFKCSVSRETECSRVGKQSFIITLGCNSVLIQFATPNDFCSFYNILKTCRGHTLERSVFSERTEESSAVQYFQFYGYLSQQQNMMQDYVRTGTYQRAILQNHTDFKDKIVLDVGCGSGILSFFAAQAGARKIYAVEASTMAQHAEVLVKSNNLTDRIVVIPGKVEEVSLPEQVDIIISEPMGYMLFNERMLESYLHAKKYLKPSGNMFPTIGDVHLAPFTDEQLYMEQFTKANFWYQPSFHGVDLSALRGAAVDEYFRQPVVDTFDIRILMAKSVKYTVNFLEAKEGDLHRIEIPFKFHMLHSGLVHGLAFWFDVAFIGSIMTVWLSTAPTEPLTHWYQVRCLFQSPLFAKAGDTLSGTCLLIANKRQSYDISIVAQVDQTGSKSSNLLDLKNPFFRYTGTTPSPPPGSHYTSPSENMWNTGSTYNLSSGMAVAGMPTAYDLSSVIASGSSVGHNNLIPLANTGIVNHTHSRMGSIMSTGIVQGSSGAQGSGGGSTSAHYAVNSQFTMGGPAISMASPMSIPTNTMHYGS

[4] = biological target: Protein arginine N-methyltransferase 6 (Homo sapiens, UniProt Q96LA8); test: Selectivity interaction (Scintillation proximity assay) EUB0000261b PRMT6
[5] = biological target: Protein arginine N-methyltransferase 8 (Homo sapiens, UniProt Q9NR22); test: Selectivity interaction (Scintillation proximity assay) EUB0000261b PRMT8

Measured: IC50

Sequence of Protein arginine N-methyltransferase 6 (Q96LA8 whole entry): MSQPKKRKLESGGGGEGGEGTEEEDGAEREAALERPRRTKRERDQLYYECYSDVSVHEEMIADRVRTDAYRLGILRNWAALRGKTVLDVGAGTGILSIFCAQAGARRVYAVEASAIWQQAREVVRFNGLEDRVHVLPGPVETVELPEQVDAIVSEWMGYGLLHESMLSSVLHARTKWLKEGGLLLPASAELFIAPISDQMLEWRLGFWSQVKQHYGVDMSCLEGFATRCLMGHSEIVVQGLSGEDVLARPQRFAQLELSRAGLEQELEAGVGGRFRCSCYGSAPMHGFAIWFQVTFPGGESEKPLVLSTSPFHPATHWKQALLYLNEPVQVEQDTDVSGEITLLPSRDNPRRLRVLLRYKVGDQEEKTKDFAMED
Sequence of Protein arginine N-methyltransferase 8 (Q9NR22 whole entry): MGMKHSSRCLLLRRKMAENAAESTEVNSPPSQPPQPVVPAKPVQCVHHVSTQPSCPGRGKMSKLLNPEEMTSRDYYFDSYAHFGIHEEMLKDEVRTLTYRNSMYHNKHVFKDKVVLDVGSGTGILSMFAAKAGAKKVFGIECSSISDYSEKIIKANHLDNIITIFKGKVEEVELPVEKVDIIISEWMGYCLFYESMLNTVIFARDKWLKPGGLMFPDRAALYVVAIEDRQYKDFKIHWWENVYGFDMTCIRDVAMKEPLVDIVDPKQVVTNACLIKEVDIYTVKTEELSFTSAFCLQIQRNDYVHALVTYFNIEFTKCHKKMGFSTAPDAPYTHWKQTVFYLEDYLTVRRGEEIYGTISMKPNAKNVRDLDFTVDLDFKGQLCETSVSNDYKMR
Sequence of Protein arginine N-methyltransferase 3 (O60678 whole entry): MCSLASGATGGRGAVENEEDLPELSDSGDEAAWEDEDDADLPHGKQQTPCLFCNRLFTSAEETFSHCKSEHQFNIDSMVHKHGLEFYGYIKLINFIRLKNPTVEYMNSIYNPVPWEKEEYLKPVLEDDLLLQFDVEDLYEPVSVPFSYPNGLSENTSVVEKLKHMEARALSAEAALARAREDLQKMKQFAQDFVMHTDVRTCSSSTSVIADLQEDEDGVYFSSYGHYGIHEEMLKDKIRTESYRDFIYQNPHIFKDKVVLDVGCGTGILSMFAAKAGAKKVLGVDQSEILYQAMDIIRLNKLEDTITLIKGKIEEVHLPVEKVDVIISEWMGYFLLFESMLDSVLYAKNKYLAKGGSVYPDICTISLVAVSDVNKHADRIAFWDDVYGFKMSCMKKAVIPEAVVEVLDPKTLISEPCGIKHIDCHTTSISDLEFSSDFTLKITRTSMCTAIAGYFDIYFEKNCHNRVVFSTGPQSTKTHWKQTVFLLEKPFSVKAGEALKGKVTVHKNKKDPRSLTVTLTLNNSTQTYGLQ
Sequence of Protein arginine N-methyltransferase 1 (Q99873 whole entry): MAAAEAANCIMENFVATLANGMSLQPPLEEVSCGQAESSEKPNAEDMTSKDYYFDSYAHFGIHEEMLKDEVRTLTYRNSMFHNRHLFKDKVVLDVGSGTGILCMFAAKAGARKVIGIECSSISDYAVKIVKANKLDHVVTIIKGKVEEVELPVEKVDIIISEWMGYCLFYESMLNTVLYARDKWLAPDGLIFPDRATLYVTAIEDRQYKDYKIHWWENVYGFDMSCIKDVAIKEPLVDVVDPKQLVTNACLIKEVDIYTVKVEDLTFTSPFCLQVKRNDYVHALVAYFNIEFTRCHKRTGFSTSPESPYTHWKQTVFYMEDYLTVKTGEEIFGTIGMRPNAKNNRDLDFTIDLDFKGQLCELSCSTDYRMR

CC(C)Oc1ccc(-c2c[nH]cc2CN(C)CCO)cc1
> 20 µM: all assays above

— ChEMBL document CHEMBL5465560, “Selectivity Literature for EUbOPEN Chemogenomic Library” (2024)
